Literature values, collected in publication PMC6422671 (British Journal of Clinical Pharmacology, 2019).

Test system: myeloperoxidase
Parameters: method as in E Michaëlsson et al., manuscript in preparation
Settings: in vitro, unpublished; ref E Michaëlsson et al., manuscript in preparation; cited from earlier work

C[C@@H](N)c1cc(Cl)ccc1Cn1c(=S)[nH]c(=O)c2[nH]ccc21 [AZD4831]
inhibition of oxidation of xanthine and uric acid by myeloperoxidase: inhibits
